System: NMDA-evoked currents in cultured rat embryonic hippocampal neurons (NMDAr)
Details: 500 µM

TKRSSRAFRE [EAR7]
inhibitory action on NMDA-evoked currents (control peptide): No inhibitory action

Source: PMC5433008 (BMC Neuroscience, 2017)
